Source: ChEMBL document CHEMBL3507680, “University of Dundee, Gates Library screen for HepG2 cell viability”

Assay: Human HepG2 cell viability assay in 384 well format
Format: toxicity, cell-based
Set-up: dose 125 nL, time 70.5 hour; cytotoxicity at 70.5 h: concentration not given beside the values
Settings: HepG2 cells, read-out: Inhibition

Compound | cytotoxicity at 70.5 h [%]
O=C(c1ccoc1)N1CCCN(CC2CCOc3ccccc3C2)CC1 (configuration not stated) | 18.3
COCc1ccccc1C(=O)N1CCCC1Cn1nc(C)cc1C (configuration not stated) | 0.418
CC(=O)N1CCC(NCc2cccnc2N(C)Cc2ccccc2)CC1 | -6.72
Cc1ccc(C(=O)N2CCC3(CCN(C(=O)c4cccnc4)C3)CC2)o1 | -19.3
O=C(CCc1ccc(Br)cc1)NCc1nnc[nH]1 | -9.74
CC(C)NC(=O)c1ccc2nnc(C3CN(C)CCN3C)n2c1 (configuration not stated) | -8.09
COCC[C@]1(O)CCN(Cc2nnc(C)s2)C[C@H]1C | -9.14
Cc1cc(S(=O)(=O)N2CCCc3ccccc32)sc1C(=O)O | -12.2
COc1ccc(C2CC(=O)c3c(O)cc(O)cc3O2)cc1O (configuration not stated) | -9.21
O=C(c1ccc2c(c1)OCO2)N1CCN(c2cnccn2)CC1 | -3.98
COCc1cc(N(C)Cc2cc(C(C)(C)C)n[nH]2)ncn1 | -7.91
O=C(c1cncc(N2CC[C@@]3(O)CCNC[C@H]3C2)n1)N1CCCC1 | -3.92
CC(=O)N1CCN(Cc2ccc(Cl)c(F)c2)CC(O)C1 (configuration not stated) | 17.8
O=C1CC2(CCN(C(=O)c3ccc4c(c3)CCCO4)C2)C(=O)N1 (configuration not stated) | 2.37
C[C@@H]1CN(C2(C(=O)N3CC[C@H](O)C3)Cc3ccccc3C2)C[C@H](C)O1 | -11.9
O=C(O)CN1CCc2onc(C(c3ccccc3)c3ccccc3)c2C1 | -3.48
CCN1CC(C(=O)N(C)Cc2ccon2)CC1=O (configuration not stated) | 25.3
Cn1cccc1C(=O)NC1(C(=O)NCC2CC2)CCCC1 | -11.4
Cc1cc(C2CCCN2C(=O)CN2CC3(CCNCC3)OC2=O)on1 (configuration not stated) | -5.06
Cc1ccccc1C(CNc1ncnc2c1CCNCC2)N(C)C (configuration not stated) | 5.24
CS(=O)(=O)NC1CCN(Cc2coc(-c3ccc(Cl)cc3)n2)CC1 | 7.7
COc1ccccc1C1(O)CCCN(C(=O)c2csc(C(C)=O)c2)C1 (configuration not stated) | -1.27
CS(=O)(=O)N1CCC(c2nnc3ccc(C(=O)NC4CCC4)cn23)C1 (configuration not stated) | 12.6

Compound | cytotoxicity at 70.5 h [%]
CCOc1c(Br)cc(CNCCc2nnc3n2CCCCC3)cc1OC | -10.5
CC(NC(=O)Cn1cccnc1=O)c1ccc(OC(F)(F)F)cc1 (configuration not stated) | -8.28
Cc1nn(C)cc1CN1CCc2nc(-c3cccnc3)nc(O)c2C1 | -3.92
COCc1cccc(C(=O)N2CCCN(C(=O)OCC(C)C)CC2)c1 | -5.18
COc1ccc(NC(C)c2ccc(C#N)cc2)cc1N1CCCC1=O (configuration not stated) | 1.58
COCCN1CCc2ncnc(NC3CC3)c2CC1 | -2.68
COCc1nc(C(=O)N2CCCC2c2c(C)nn(C)c2C)cs1 (configuration not stated) | -6.67
CN(C)S(=O)(=O)CCCOc1cccc(-n2ccnc2)c1 | -3.93
O=C(c1cccc(CO)n1)N1CCOC(c2ccc(Cl)c(Cl)c2)C1 (configuration not stated) | -9.7
COc1cccc(OC2CN(C(=O)c3sccc3C)C2)c1 | -4.06
CCn1cc(S(=O)(=O)N2CCC3(CCCN(CC4CCC4)C3=O)C2)cn1 (configuration not stated) | -0.872
CC(C)CC(NC(=O)OC(C)(C)C)C(N)=O (configuration not stated) | 20.5
CCc1nnc2n1CC(CNCc1nc(-c3ccsc3)no1)CC2 (configuration not stated) | -4.57
O=C(NCc1nc(C2CCCCC2)no1)C1CC(=O)N(C2CCCC2)C1 (configuration not stated) | -0.128
O=C(Cc1cccnc1)NC1COc2ccccc2C1=O (configuration not stated) | -14.7
CCN(c1ccc(C(=O)N2CCCC2c2cnn(C)c2)cn1)C(C)C (configuration not stated) | 16.2
Cc1ccc(S(N)(=O)=O)cc1C(=O)N1C[C@@H](CN(C)C)[C@@H](CO)C1 | -5.13
Cc1cc2c(=O)n3c(nc2s1)CCN(C(=O)c1ccnn1C(C)C)CC3 | -7.45
Cc1cc(NCc2noc(C(C)C)n2)nc(-c2ccccc2)n1 | 12.1
Cc1ccccc1C(C)NC(=O)CN1CCN(Cc2cccs2)CC1 (configuration not stated) | 0.186
O=C(N1CCOCC1)[C@@]12CCO[C@@H]1CCN(CC1CCCC1)C2 | 49.2
COCCN1C[C@H]2[C@@H](C1)N(Cc1ccc(C)o1)CC[C@H]2OC | -5.94
CCn1ccnc1CN1CCCN(C(=O)c2cc(C)nn2CC)CC1 | 3.88

Compound | cytotoxicity at 70.5 h [%]
O=S(=O)(c1cccs1)N1CCCn2cnc(CN3CCCC3)c2C1 | 23.3
Cc1noc([C@@]23CCO[C@@H]2CCN(C(=O)CCC(C)C)C3)n1 | 1.83
CC(C)Oc1ncccc1CNC(=O)NC(C)c1cccs1 (configuration not stated) | -21
CC(C)(C)c1nc(CNC2CCN(S(C)(=O)=O)CC2)cs1 | -8.36
O=C(c1ccsc1)N1CCO[C@@H]2CN(Cc3ccccn3)CC[C@@H]2C1 | 8.56
CC1N(CC2CC2)C(=O)COC12CCN(C(=O)c1ccno1)CC2 (configuration not stated) | -4.07
COCC(C)NC(=O)CN1CCC(CO)CC1 (configuration not stated) | -3.9
CNC(=O)N1C[C@H]2C[C@H](C(=O)Nc3ccccc3)[C@@H](C1)O2 | -7.41
CN1CCN(CC[C@@H]2CC[C@H](O)[C@@H](C(=O)Nc3ccccc3)O2)CC1 | 1.15
CC(=O)N1CCc2c(nc(N(C)C)nc2NCCc2cccs2)C1 | -5.76
CC(=O)N(C)c1nc(Cn2nnnc2C(C)C)cs1 | -6.77
Cc1noc(-c2ccc(N3CCN(Cc4nccn4C)CC3)nc2)n1 | -15.7
COCCOc1ncccc1C(=O)N1CCCC(n2ccnc2C)C1 (configuration not stated) | -13.5
CCc1nc(CN2CCCN(C(=O)COC(C)C)CC2)cs1 | 2.07
Cc1n[nH]c(C)c1C1CCCN1C(=O)c1cc(Br)c[nH]1 (configuration not stated) | 12.3
NC(=O)CN(C(=O)c1c[nH]c2ncccc12)C1CCCC1 | 3.16
COc1ccccc1CC(=O)NCc1ccnc(NC2CC2)c1 | -0.149
O=C(c1cccnc1)N1CCC[C@]2(C[C@H](Oc3ncccc3F)CO2)C1 | 0.397
CN(C)C(=O)C1CN(Cc2c[nH]cn2)CCN(C2CCOCC2)C1 (configuration not stated) | -0.471
CC(C)N(CCNC(=O)c1ccc(S(=O)(=O)NC2CC2)cc1)C(C)C | 25.6
CC(C)C1CN(C(=O)c2cc(F)cc3[nH]cnc23)CCS1 (configuration not stated) | -2.35
CN(C(=O)c1ccccc1NCC(=O)O)C(C1CC1)C1CC1 | -10.9
Cc1oncc1C(=O)N1CCC(O)(CN2CCOCC2)C(C)(C)C1 (configuration not stated) | -2.15

Compound | cytotoxicity at 70.5 h [%]
Cc1nc(-c2cccc(C(=O)O)c2)cc(C2CCCN(C(C)C)C2)n1 (configuration not stated) | 13.2
CC(C)c1cc(NC(=O)CN2CCn3c(nnc3C3CC3)C2)on1 | 19.6
CNC(=O)c1ccc(=O)n(Cc2csc(N(C)C(C)=O)n2)c1 | -2.61
NS(=O)(=O)NCc1cc(-c2ccc(C(F)(F)F)cc2)n[nH]1 | -5.31
COCCO[C@H]1CCN(c2cc(OC)ncn2)[C@H]1Cc1cnn(C)c1 | -4.71
CCc1nc(-c2noc3ccc(C(=O)NCCN(C)C)cc23)co1 | -4.76
Cc1cc(CN2CCN(CC(O)c3ccccc3)CC2)no1 (configuration not stated) | 0.624
CC(C)n1nc(Cn2cccn2)c2c1CN(C1CCOCC1)C2 | -4.7
Cc1cnn(CC2CN(CC(=O)N(C)c3nccs3)CCO2)c1 (configuration not stated) | -2.03
Cc1nc(CN2CCCCC2CCc2ccc(O)cc2)no1 (configuration not stated) | 6.16
CCOc1ncccc1CNC(=O)c1cccc(C)n1 | -17.3
COc1ccc(-c2cc(C3(O)CCOC(C)(C)C3)on2)cc1 (configuration not stated) | -11.5
CCOCCN(CCOCC)c1nc(C)nc2sccc12 | -0.429
O=C(NCC1CCOC1)c1csc(-c2ccco2)n1 (configuration not stated) | 21.2
CC(C)OCc1ncn2c1CN(Cc1ccc(F)cc1)CCC2 | -3.8
CC(C)CNC(=O)c1cccc(Oc2ccc3nncn3n2)c1 | -9.71
CCc1c(C(=O)N2CCN(C)[C@@H]3CS(=O)(=O)C[C@@H]32)[nH]c2ccccc12 | -0.756
CC(=O)N1C[C@@H]2CN(S(=O)(=O)C3CC3)CCO[C@@H]2C1 | -1.33
Cn1cnnc1C1CCCN(C(=O)c2ccc3c(c2)OCCCO3)C1 (configuration not stated) | -2.02
CCS(=O)(=O)N1C[C@@H](OCc2cccnc2)[C@H]2OCCC[C@H]21 | 6.52
Cc1nc(N)nc(N2CCOc3ccc(CO)cc3C2)c1C | 25.5
COc1ccc(-c2noc(CN3CCOCC3C)n2)cc1OC (configuration not stated) | -10.5
O=S(=O)(N1CCOCC1)N1CCCCC1CCn1cccn1 (configuration not stated) | 3.71

Compound | cytotoxicity at 70.5 h [%]
C=C(C)CN(CC)C(=O)c1cc(F)ccc1N1CCN(C)CC1 | -12.2
CCc1ccc(CNCC2CCN(CCO)CC2)cc1 | 16.5
FC(F)Oc1ccc(CNCc2cc(Cl)c3c(c2)OCO3)cc1 | -5.5
CC(=O)c1cccc(OCCCC(=O)N(C)CC(N)=O)c1 | -7.52
CN1CCC2(COCCN(Cc3cccc(C#N)c3)C2)C1 (configuration not stated) | -0.504
O=C(NCC1(O)CCSC1)c1ccn(-c2ccccc2F)n1 (configuration not stated) | -15.6
CC(C)NC(=O)N1CCN(Cc2ccccn2)CC2(CC(=O)N(C)C2)C1 (configuration not stated) | 22.3
CCn1cnnc1C1CCN(C(=O)Cc2ccc(OC)c(F)c2)CC1 | -7.22
O=C(c1cccnc1N1CCOCC1)N1CCCC(n2cccn2)C1 (configuration not stated) | -5.6
COCc1cccc(C(=O)N2C[C@H]3CC[C@@H]2CN(Cc2cscn2)C3)n1 | 34.5
CCCNC(=O)CCC(=O)N1CCC(c2noc3cc(F)ccc23)CC1 | -8.21
NC(=O)CC1CCN(S(=O)(=O)c2cnn(-c3ccccc3)c2)CC1 | -5.73
Cn1c(NC(=O)CCS(=O)(=O)C2CCCC2)nc2cc(Cl)ccc21 | -9.03
O=C(NCCCF)N1CCC(n2ccc(C(F)(F)F)n2)CC1 | -104
O=C(CN1CCCC1=O)N1CCC(O)(Cn2ccc3ccncc32)CC1 | -5.71
CCC1CN(C(=O)COc2ccc(NC(C)=O)cc2)CCO1 (configuration not stated) | 13.7
COc1ccc(OC)c(C2C3=C(COC3=O)Nc3[nH]nc(C)c32)c1 (configuration not stated) | 32
Cc1ccc(-c2noc(C(O)CC(C)C)n2)nn1 (configuration not stated) | -3.31
Nc1nc(C2CCN(C(=O)c3cnccn3)CC2)cs1 | 15.4
CCn1nc(C)c2nc(C(C)C)nc(NCC(C)C)c21 | -8.62
